US9840532B2, “5′-substituted nucleoside compounds” (Eli Lilly and Company, priority 2015, dated 2017)
pIC50: −log10 of the molar value.

biological target: T1, PRMT5/MEP50 complex (Homo sapiens, UniProt O14744); assay: PRMT5/MEP50 SPA Assay; format: biochemical; conditions: Mean ± SEM
T1 construct: FLAG; made in house; host or cells: baculovirus/Sf9 insect cells
From the text: The purpose of this assay is to measure the ability of a test compound to inhibit the enzyme activity of PRMT5 in vitro by inhibiting the catalytic activity of PRMT5/MEP50 complex, indicated by the transfer of radiolabeled methyl-^3H to a substrate peptide derived from the N-terminal sequence of the human histone H4.
Express the PRMT5/MEP50 enzyme complex using a baculovirus/Sf9 system and purify using anti-FLAG affinity chromatography, (essentially as described in preparations by Stephen Antonysamy, Zahid Bonday, Robert M. Campbell, Brandon Doyle, Zhanna Druzina, Tarun Gheyi, Bomie Han, Louis N. Jungheim, Yuewei Qian, Charles Rauch, Marijane Russell, J. Michael Sauder, Stephen R. Wasserman, Kenneth Weichert, Francis S. Willard, Aiping Zhang, and Spencer Emtage; Crystal structure of the human PRMT5:MEP50 complex, Proceedings of the National Academy of Sciences, 2012, Volume 109, pages 17960-17965.) Dilute purified enzyme to a working stock of 6.67 nM in assay buffer (50 mM TRIZMA® preset pH ˜8.5, 1 mM DTT, 0.005% TWEEN® 80 0.01% HSA).
Add enzyme (15 μL/well) to a 384-well assay plate (CORNING® cat. #3706). Add test compounds from a 10 mM DMSO stock solution to the plate as serial dilutions in assay buffer to achieve a final test concentrations ranging from 50.0 μM to 25 nM. Create a reaction mix containing 1 μM Histone H4 biotinylated peptide substrate, H-[…]-biotin (SEQ ID NO: 1), prepared by FastMoc chemistry with an ABI 431 peptide, and 4 μM ^3H-SAM; 15 Ci/mmol, 0.366 mCi/mL, 37 μM, PERKIN-ELMER® cat. # NET155000MC) in assay buffer. To each plate well, add 5 μL of the peptide/^3H-SAM reaction mix to yield final assay conditions of 5 nM enzyme, 1 ^3H-SAM, 250 nM peptide and 50 μM maximum test compound concentration with 0.5% DMSO, at a final volume of 20 μL. Incubate the assay for 2 hr at room temperature. Stop the reaction with the addition of guanidine HCl (5 M, 20 μL, Sigma cat. # G3272).
Suspend strepavidin YSI SPA scintillation beads (PERKIN-ELMER®, #RPNQ0012) at 1 mg/mL in pH ˜8.5 Tris buffer containing 5 M guanidine HCl. To each well, add 20 μL of this bead suspension, agitate the resulting mixtures, and incubate for 1 hr at room temperature prior to measuring their radioactivity, using a microplate liquid scintillation counter as an indication of the formation of methylated peptide product.
Generate raw data from the radioactivity measurement as counts per min (CPM). Employ an uninhibited control (DMSO) and maximum inhibited control (250 μM dehydrosinefungin, (isolated essentially as described in Berry, D. R. & Abbott, B. J. Incorporation of carbon-14-labeled compounds into sinefungin (A9145), a nucleoside antifungal antibiotic. J. Antibiot. 1978 (31) 185-191 and references cited therein)). […]

T1 sequence (O14744 whole entry): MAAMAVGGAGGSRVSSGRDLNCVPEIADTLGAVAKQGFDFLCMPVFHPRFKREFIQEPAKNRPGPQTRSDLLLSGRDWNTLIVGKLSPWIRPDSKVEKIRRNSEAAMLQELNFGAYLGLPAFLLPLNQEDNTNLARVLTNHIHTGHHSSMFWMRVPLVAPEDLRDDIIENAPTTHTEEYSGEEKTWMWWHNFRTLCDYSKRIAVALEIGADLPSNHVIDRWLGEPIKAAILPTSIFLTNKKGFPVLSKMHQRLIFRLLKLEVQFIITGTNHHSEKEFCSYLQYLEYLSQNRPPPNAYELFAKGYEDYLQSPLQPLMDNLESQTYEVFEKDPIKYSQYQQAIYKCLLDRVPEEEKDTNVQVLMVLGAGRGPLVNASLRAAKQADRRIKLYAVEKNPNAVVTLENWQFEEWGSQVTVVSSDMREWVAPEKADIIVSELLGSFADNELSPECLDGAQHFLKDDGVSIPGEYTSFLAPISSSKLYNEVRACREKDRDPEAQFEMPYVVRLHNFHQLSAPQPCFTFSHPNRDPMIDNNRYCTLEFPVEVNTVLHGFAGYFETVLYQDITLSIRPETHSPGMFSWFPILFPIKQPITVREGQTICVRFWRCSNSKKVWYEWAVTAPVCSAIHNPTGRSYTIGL
T1 sequence (Q9BQA1 whole entry partner): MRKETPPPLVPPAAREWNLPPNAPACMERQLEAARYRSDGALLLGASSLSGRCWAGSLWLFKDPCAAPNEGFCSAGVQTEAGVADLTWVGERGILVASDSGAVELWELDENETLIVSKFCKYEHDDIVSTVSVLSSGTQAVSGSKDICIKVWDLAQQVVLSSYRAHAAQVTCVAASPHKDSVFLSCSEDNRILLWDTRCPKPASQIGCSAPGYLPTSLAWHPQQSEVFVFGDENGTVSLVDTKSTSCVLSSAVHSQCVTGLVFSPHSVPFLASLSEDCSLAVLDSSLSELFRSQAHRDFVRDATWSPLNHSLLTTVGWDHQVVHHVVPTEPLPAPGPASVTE

pIC50 | SMILES
8.37 | Nc1ncnc2c1ccn2[C@@H]1O[C@H]([C@H](O)c2ccc(Cl)cc2)[C@@H](O)[C@H]1O [Example 1, (2R,3R,4S,5R)-2-(4-Aminopyrrolo[2,3-d]pyrimidin-7-yl)-5-[(R)-(4-chlorophenyl)-hydroxy-methyl]tetrahydrofuran-3,4-diol]
8.28 | C[C@@](O)(c1ccc(Cl)cc1)[C@H]1O[C@@H](n2ccc3c(N)ncnc32)[C@H](O)[C@@H]1O [Example 3, (2R,3R,4S,5S)-2-(4-Aminopyrrolo[2,3-d]pyrimidin-7-yl)-5-[(1R)-1-(4-chlorophenyl)-1-hydroxy-ethyl]tetrahydrofuran-3,4-diol]

SMILES | pIC50
Nc1ncnc2c1ccn2[C@@H]1O[C@H]([C@H](O)c2ccccc2)[C@@H](O)[C@H]1O [Example 2, (2R,3R,4S,5R)-2-(4-Aminopyrrolo[2,3-d]pyrimidin-7-yl)-5[(R)-hydroxy(phenyl)methyl]tetrahydrofuran-3,4-diol] | 8.02
